Test results published in patent publication US5231091A, “Bis-arylphosphate ester antagonists of platelet activating factor” (priority 1992, dated 1993).
Where a name gives a salt, the structure may show the parent alone.

What was measured:
PAF receptor [1] = target: T1, PAF receptor (Homo sapiens, UniProt P25105); assay: Inhibition of PAF-induced aggregation in human platelet rich plasma; assay type: cell-based; conditions: PAF challenge 1E-6M, number of experiments in parentheses
T1 construct: Blood from healthy volunteers was collected; endogenous in cells; host or cells: human platelets (healthy volunteers)
Protocol: (§1) Test compounds were evaluated as PAF receptor antagonists in vitro by measuring inhibition of PAF (platelet activating factor) induced platelet aggregation. Platelet aggregation was measured by a modification of the method described in A. Wissner, et. al., J. Med. Chem., 27, 1174, 1984.
(§2) L-PAF was obtained from Calbiochem. A stock solution of 1-2 E-3M was prepared in 10% ethanol in water or 100% methanol and serial working dilutions were made using phosphate buffered saline (PBS). 1-2 E-3M stock solutions of test compounds were prepared in 100% methanol and serially diluted in PBS. All solutions were made up in plastic tubes, stored on ice and protected from heat and light. Solutions were prepared fresh or frozen at -20° C. and used within 48 hours.
(§3) Incubation mixtures consisted of 400 μl PRP, 50 μl of PBS diluent or test compound and 50 μl of PAF agonist. More specifically, 400 μl of PRP was stabilized in a cuvette for 1-2 minutes at 37° C. in the aggregometer to achieve a stable baseline, then 50 μl of PBS or test compound, was added and incubated for 5 minutes before addition of the challenge concentration of PAF (final concentration of 5E-8M or 1E-7M, as determined from the dose response curve for PAF for that experiment). Aggregation was monitored for 5 minutes. Samples containing test compound or diluent were run simultaneously for comparison. Test compounds were initially evaluated at a screening concentration of 1E-5M.
(§4) The recording equipment consisted of a dual channel Chronolog aggregometer connected to a dual channel 10 MV full scale deflection Omniscribe chart recorder (Houston Instruments). […] The bead suspension was used to set the 0% light transmission mark and clear water was used to set the 100% light transmission mark. These limits defined a full scale deflection. The aggregation traces were analyzed by a digitizing method (C. Kohler and B. Zoltan, J. Pharm. Methods, 12, 113, 1984) with x, y coordinate data stored in a computer file. A suitable program computed parameters of interest such as the magnitude of aggregation.
In some experiments, human PRP was used instead of rabbit PRP. Blood from healthy volunteers was collected in Vacutainers® containing the Na citrate diluent and processed in a manner similar to rabbit blood to obtain the PRP. For these experiments, the challenge concentration of PAF was 1E-6M.

PAF receptor [2] = target: T2, PAF receptor (Oryctolagus cuniculus, UniProt G1TEI7); assay: Inhibition of PAF-induced aggregation in rabbit platelet rich plasma; assay type: cell-based, rabbit (male New Zealand White); conditions: rabbit platelet rich plasma; PAF challenge 5E-8M; number of experiments in parentheses; read-out: IC50 inhibition of PAF-induced aggregation
T2 construct: endogenous in cells; host or cells: rabbit platelets (male New Zealand White)
Protocol: as §1
Approximately 120-240 ml of blood were collected by cardiac puncture from unanesthetized male New Zealand White rabbits (Whaley's Summit View Farms, Belvedere, N.J.) with the use of 3.2% sodium citrate anticoagulant (1 part of citrate/10 parts of blood). All syringes and pipets were plastic. The blood was gently mixed and immediately centrifuged at 800 rpm for 10-15 minutes at room temperature to recover the platelet rich plasma (PRP). Platelet poor plasma (PPP) was prepared by centrifuging PRP at 2800 rpm for 10 minutes at room temperature.
Dilutions (1:3000) of PRP in Isoton® diluent were made and platelet counts were determined on a Coulter Thrombocounter which was standardized with platelet reference standards (Interscience Platelet Control, Portland, Oreg.). PRP platelet counts were adjusted to approximately 400,000-500,000 platelets/μl by the addition of PPP.
as §2, §3, §4

PAF induced lethality = PAF induced lethality in mice; assay type: in vivo; conditions: corrected for control lethality
Protocol: PAF given I.V. to mice causes an immediate hypotensive shock leading to death in 1 hour or less. Compounds were given intraperitoneally or P.O. at various times before the PAF challenge. Animals alive after 2 hours were counted and the activity of test compounds expressed as % survival corrected for any control (saline treated) animals which survived the PAF challenge.

PAF induced skin lesions = assay: Guinea pig vascular permeability (skin lesion) model; assay type: in vivo, guinea pig (Hartley)
[3] = system: endotoxin induced mortality; assay: Endotoxin induced shock and mortality in mice; assay type: in vivo, mouse (male Balb/c)
Description: The test compounds (PAF antagonists) were also efficacious when administered iv prior to a lethal iv injection of endotoxin (Table IX).

LPS induced hypotension = assay: Endotoxin (LPS) induced hypotension in rats; assay type: in vivo, rat (male Wistar); conditions: anesthetized rats; 10 ug/kg intraarterially 5 minutes after LPS 15 mg/kg I.V.
Protocol: Bacterial cell wall lipopolysaccharide from E. coli strain 0111:B4 (Sigma #L-2630) was dissolved in saline at a concentration of 3.75 mg/ml and administered to rats at 15 mg/kg I.V. Test compounds were dissolved in saline at 1 mg/ml, diluted to 10 ug/ml, and injected intraarterially at 1 ml/kg (10 ug/kg). Male wistar strain rats were obtained from Charles River Labs and maintained according to ALAC standards. They were anesthetized with 30 mg/kg pentobarbital ip with supplementation as needed. The throat was opened, the left carotid artery was cannulated with PE-10 tubing and the trachea cannulated with 0.100 O.D. tubing. Ventilation was maintained by a Harvard Apparatus small animal pump at a rate sufficient to nearly abolish spontaneous respiration.

PAF receptor [4] = target: T2, PAF receptor; assay: Inhibition of PAF-induced aggregation in washed rabbit platelets; assay type: cell-based; conditions: PAF challenge 5E-9M, number of experiments in parentheses
Protocol: as §1, §2
as §3, with “More” for “Incubation mixtures consisted of 400 μl PRP, 50 μl of PBS diluent or test compound and 50 μl of PAF agonist. More”, “400 μl of PRP was stabilized in a cuvette” left out, “1E-5M. […]” for “1E-5M.”

[5] = footnote c: I.P. 4 mg/kg 1 hour before PAF
[6] = 10 mg/kg IP 2 hours prior to IP endotoxin

T2 sequence (G1TEI7 1-342): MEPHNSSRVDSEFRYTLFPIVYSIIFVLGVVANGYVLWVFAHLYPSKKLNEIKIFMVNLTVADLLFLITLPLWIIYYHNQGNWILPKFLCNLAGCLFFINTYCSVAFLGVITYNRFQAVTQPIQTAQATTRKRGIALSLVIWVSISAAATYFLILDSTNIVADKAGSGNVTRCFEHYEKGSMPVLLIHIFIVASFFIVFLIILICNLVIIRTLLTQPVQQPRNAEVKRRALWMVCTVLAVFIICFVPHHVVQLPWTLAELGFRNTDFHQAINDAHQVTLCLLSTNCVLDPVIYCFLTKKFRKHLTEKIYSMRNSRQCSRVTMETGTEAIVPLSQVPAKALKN
T1 sequence (P25105 whole entry): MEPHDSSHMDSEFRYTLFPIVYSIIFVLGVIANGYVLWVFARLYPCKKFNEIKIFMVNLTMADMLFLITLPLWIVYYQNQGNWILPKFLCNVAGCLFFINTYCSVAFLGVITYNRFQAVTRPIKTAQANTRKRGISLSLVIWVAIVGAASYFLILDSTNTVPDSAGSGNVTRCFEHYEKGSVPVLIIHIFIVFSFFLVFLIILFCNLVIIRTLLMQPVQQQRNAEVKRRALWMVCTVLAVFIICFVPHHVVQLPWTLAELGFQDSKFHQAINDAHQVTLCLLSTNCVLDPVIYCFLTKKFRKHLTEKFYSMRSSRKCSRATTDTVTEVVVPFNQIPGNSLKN

| SMILES | IC50 (PAF receptor [1]) | IC50 (PAF receptor [2]) | 24 hour survival, treated [3, 6] | also measured |
| --- | --- | --- | --- | --- |
| CCCCCCCCCCCCOc1cc(C(C)(C)C)c(OP(=O)([O-])Oc2cccc(C[n+]3cccc4ccccc43)c2)cc1C(C)(C)C [1-[[3-[[[2,5-Bis(1,1-dimethylethyl)-4-(dodecyloxy)phenoxy] hydroxyphosphinyl]oxy]phenyl]methyl]quinolinium, hydroxide, inner salt] | 47.5 µM | 1.36 µM |  |  |
| CCCCCCCCCCCCCCOc1cccc(OP(=O)([O-])Oc2cccc(C[n+]3ccsc3)c2)c1OC [3-[[3-[[Hydroxy]2-methoxy-3-(tetradecyloxy)phenoxy]-phosphinyl]oxy]phenyl]methyl]-thiazolium, hydroxide inner salt] | 26.4 µM | 7.5 µM | 7/30 | PAF induced lethality, % protection (PAF induced lethality; I.P. 10 mg/kg): 12%; PAF induced skin lesions, % of control (PAF induced skin lesions; [5]): 75%; 24 hour survival, treated ([3]; 30 mg/kg IP 2 hours prior to IP endotoxin, control 4/50): 12/50; Survival after 24 hrs., treated ([3]; Table IX, 10 mg/kg iv prior to iv endotoxin, footnote prints IP, control 0/20): 4/20; % reversal of LPS induced hypotension (fall in mean arterial pressure) (LPS induced hypotension): 89% |
| CCCCCCCCCCCCOc1cc(C(C)(C)C)c(OP(=O)([O-])Oc2cccc(C[n+]3ccsc3)c2)cc1C(C)(C)C [3-[[3-[[[2,5-Bis(1,1-dimethylethyl)-4-(dodecyloxy)phenoxy]hydroxyphosphinyl]oxy]phenyl]methyl]thiazolium, hydroxide, inner salt] | 1.93 µM |  | 4/20 | PAF induced lethality, % protection (PAF induced lethality; [5]): 27%; PAF induced skin lesions, % of control (PAF induced skin lesions; footnote d: P.O. 5 mg/kg 4 hours before PAF): 49%; IC50 (PAF receptor [4]): 0.00212 µM; 24 hour survival, treated ([3]; 20 mg/kg IP 2 hours prior to IP endotoxin): 6/20; 24 hour survival, treated ([3]; 40 mg/kg IP 2 hours prior to IP endotoxin): 6/20 |
| CCCCCCCCCCCCCCCCOc1cccc(OP(=O)([O-])Oc2cccc(C[n+]3ccsc3)c2)c1C [3-[[3-[[[3-(Hexadecyloxy)-2-methylphenoxy]hydroxyphosphinyl]oxy]phenyl]methyl]-thiazolium, hydroxide, inner salt] | 0.119 µM | 2.65 µM |  |  |
| CCCCCCCCCCCCCCCCOc1cccc(OP(=O)([O-])Oc2cccc(C[n+]3ccsc3)c2)c1 [3-[[3-[[[3-(Hexadecyloxy)phenoxy]hydroxyphosphinyl]-oxy]phenyl]methyl]-thiazolium, hydroxide, inner salt] | 2.5 µM | 2.13 µM |  |  |
